Laboratory results taken from patent publication US8097733B2, “Pyrazole derivatives as 5-LO-inhibitors” (Pfizer Inc., priority 2007, dated 2012).

Legend:
[1] = Emesis evaluation in beagle dogs, IV infusion; format: in vivo; details: 8-12 kg beagle dogs, loading dose followed by slow infusion
Description: The occurrence of these gastrointestinal symptoms after administration of these compounds limited their clinical utility. Experiments are undertaken to differentiate local gastrointestinal emetic stimuli during dissolution and absorption of an oral compound from emetic stimuli produced during systemic exposure through the bloodstream. […] These findings are observed after 8-12 kg purpose-bred beagle dogs are administered 4-(3-{[4-(1-methyl-1H-pyrazol-5-yl)phenyl]thio}phenyl)tetrahydro-2H-pyran-4-carboxamide by IV infusion, using a loading dose followed by a slow infusion to attain a peak blood level over 30 minutes to 1 hour in duration. More specifically, compounds are diluted in phosphate buffered saline to a concentration where 10 ml/kg total volume was administered through an intravenous catheter using an infusion pump, with approximately 90% of the total dose being delivered in the first 5 minutes, and the remaining dose administered over the next 25 minutes. Similar delivery methods to produce an exposure that approximates the systemic pharmacokinetic profile seen with oral delivery are anticipated to give similar results. […] For compounds of the invention, emesis, can for example be evaluated by administering the named compound orally at doses of 10 mg per kg, 100 mg per kg fasted, and 100 mg per kg fed, and evaluating emesis in dogs. […]

[2] = target: T1, recombinant human 5-LOX (Homo sapiens, UniProt P09917); experiment: Fluorescence Intensity 5-LOX Enzyme Assay; format: biochemical; details: crude lysate of recombinant human 5-LOX; highest inhibitor concentration tested typically 25 μM
T1 sequence (P09917 1-674): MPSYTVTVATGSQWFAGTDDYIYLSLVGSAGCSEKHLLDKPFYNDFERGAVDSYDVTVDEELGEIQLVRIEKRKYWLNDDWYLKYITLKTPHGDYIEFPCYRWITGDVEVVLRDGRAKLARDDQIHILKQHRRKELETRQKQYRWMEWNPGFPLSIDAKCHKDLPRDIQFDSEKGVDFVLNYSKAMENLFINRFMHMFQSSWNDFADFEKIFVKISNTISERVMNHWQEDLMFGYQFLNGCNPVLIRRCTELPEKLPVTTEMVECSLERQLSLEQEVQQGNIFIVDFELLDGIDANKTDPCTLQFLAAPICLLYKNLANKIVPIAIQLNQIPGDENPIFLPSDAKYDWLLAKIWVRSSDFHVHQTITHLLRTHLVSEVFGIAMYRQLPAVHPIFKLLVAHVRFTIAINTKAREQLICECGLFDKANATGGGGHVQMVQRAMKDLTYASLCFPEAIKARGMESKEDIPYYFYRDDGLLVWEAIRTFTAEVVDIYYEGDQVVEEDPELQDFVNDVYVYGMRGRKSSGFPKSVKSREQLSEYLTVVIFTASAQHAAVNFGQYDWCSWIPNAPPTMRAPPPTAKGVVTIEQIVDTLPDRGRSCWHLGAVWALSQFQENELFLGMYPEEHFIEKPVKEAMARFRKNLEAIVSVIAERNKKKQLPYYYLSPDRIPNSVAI
In short: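 Crude lysate enzyme with H2DCFDA 10 μM (5 min dye pre-incubation), inhibitor pre-incubated 10 min; reaction started with 3 μM arachidonic acid plus 10 μM ATP in Tris pH 7.5, CaCl2, EDTA, 20 min at room temperature, acetonitrile stop. Fluorescein fluorescence; 7-point 4-parameter IC50, top 25 μM, 2.5% DMSO.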

[3] = system: human whole blood (leukotriene and prostaglandin levels); experiment: Eicosanoid production from human whole blood; format: cell-based; details: human whole blood stimulated with calcium ionophore A23187 and arachidonic acid; ELISA
In short: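 Pooled heparinized whole blood from healthy or asthmatic donors was preincubated with compound for 10 min at room temperature, with 2.5% DMSO final. It was stimulated with calcium ionophore A23187 plus arachidonic acid (30 μM) in 60% ethanol for 15 min at 37 °C. Plasma leukotrienes and prostaglandins were measured by ELISA.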

[4] = system: eicosanoid production in the rat air pouch; experiment: Carrageenan-induced eicosanoid production in the rat air pouch; format: in vivo; details: po, male Lewis rats, 3 mpk by gavage 1 hour prior to carrageenan
Description: Carrageenan-Induced Eicosanoid Production in the Rat Air Pouch:
Male Lewis rats (175-200 g), Charles River Laboratories, Wilmington, Mass.) were used in the study. Air pouches were produced by subcutaneous injection of 20 ml of sterile air into the intrascapular area of the back. Pouches were allowed to develop for 1 day. Animals (6 per group) were fasted with free access to water for 16 to 24 hours prior to drug administration. Drugs or vehicle were administered by gavage 1 hour prior to injection of 2 ml of a 1% suspension of carrageenan (FMC BioPolymer, Philadelphia, Pa., Cat. # GP209-NF) dissolved in saline into the pouch. At 3 hours post-carrageenan injection, 1 ml of 50 μg/ml calcium ionophore in saline (A23187, Sigma Chemical Co, St. Louis, M, Cat. #C-7522) was injected into the pouch and the pouch fluid collected 10 minutes later by lavage. The fluid was centrifuged at 3500 rpm for 10 minutes at 4° C., and the supernatants were collected for analysis. Leukotriene and prostaglandin levels were quantitated by ELISA according to the manufacturer's directions (Cayman Chemical Company, Ann Arbor, Mi).

| IC50 [2] [nM] | IC50 [3] [nM] | Compound | nausea and emesis [1] | inhibition at 3 mg/kg [4] [%] |
| --- | --- | --- | --- | --- |
| 386 | 260 | Cn1nccc1-c1ncc(Sc2cccc(C3(C(N)=O)CCOCC3)c2)cc1Cl [Example 11, 4-(3-{[5-chloro-6-(1-methyl-1H-pyrazol-5-yl)pyridin-3-yl]thio}phenyl)tetrahydro-2H-pyran-4-carboxamide] | – | 69 |
| 43.2 | 472 | Cn1ncc(Cl)c1-c1ccc(Sc2cccc(C3(C(N)=O)CCOCC3)c2)cc1F [Example 56, 4-(3-{[4-(4-chloro-1-methyl-1H-pyrazol-5-yl)-3-fluorophenyl]thio}phenyl)tetrahydro-2H-pyran-4-carboxamide] | – | 62 |
| 40.2 | 549 | Cn1nccc1C(=O)c1ccc(Sc2cccc(C3(C(N)=O)CCOCC3)c2)cc1 [Example 34, 4-[3-({4-[(1-methyl-1H-pyrazol-5-yl)carbonyl]phenyl}thio)phenyl]tetrahydro-2H-pyran-4-carboxamide] | – | 99.5 |
| 20.7 | 272 | C[C@H]1C[C@@](C(N)=O)(c2cccc(Sc3cnc(Oc4ccnn4C)c(Cl)c3)c2F)CCO1 [Example 52, (2S,4R)-4-(3-(5-chloro-6-(1-methyl-1H-pyrazol-5-yloxy)pyridin-3-ylthio)-2-fluorophenyl)-2-methyl-tetrahydro-2H-pyran-4-carboxamide] | – | 100 |
| 89.7 | 76.5 | Cn1nccc1-c1ccc(Sc2cccc(C3(C(N)=O)CCOCC3)c2)cc1Cl [Example 1, 4-(3-{[3-chloro-4-(1-methyl-1H-pyrazol-5-yl)phenyl]thio}phenyl)tetrahydro-2H-pyran-4-carboxamide] | – | 50.5 |
| 277 | 405 | Cn1nccc1Oc1ncc(Sc2cccc(C3(C(N)=O)CCOCC3)c2)cc1Cl [Example 41, 4-(3-(5-chloro-6-(1-methyl-1H-pyrazol-5-yloxy)pyridin-3-ylthio)phenyl)-tetrahydro-2H-pyran-4-carboxamide] | – | 98 |
| 156 | 1140 | Cn1nccc1C(=O)c1ccc(Sc2cccc(C3(C(N)=O)CCOCC3)c2)cc1F [Example 58, 4-[3-({3-fluoro-4-[(1-methyl-1H-pyrazol-5-yl)carbonyl]phenyl}thio)phenyl]tetrahydro-2H-pyran-4-carboxamide] | – | 0 |

More lines, now with the values behind:

| Compound | IC50 [2] [nM] | IC50 [3] [nM] | nausea and emesis [1] | inhibition at 3 mg/kg [4] [%] |
| --- | --- | --- | --- | --- |
| Cn1nccc1-c1ccc(Sc2cccc(C3(C(N)=O)CCOCC3)c2)cc1 [4-(3-{[4-(1-methyl-1H-pyrazol-5-yl)phenyl]thio}phenyl)tetrahydro-2H-pyran-4-carboxamide] | – | – | produce nausea and emesis through systemic exposure | – |
| C[C@H]1C[C@@](C#N)(c2cccc(Sc3cnc(Oc4ccnn4C)c(Cl)c3)c2F)CCO1 [52(4), (2S,4R)-4-(3-(5-chloro-6-(1-methyl-1H-pyrazol-5-yloxy)pyridin-3-ylthio)-2-fluorophenyl)-2-methyl-tetrahydro-2H-pyran-4-carbonitrile] | 29.1 | 118 | – | 97 |
| CNC(=O)C1(c2cccc(Sc3ccc(-c4ccnn4C)cc3Cl)c2)CCOCC1 [Example 16, 4-(3-{[2-chloro-4-(1-methyl-1H-pyrazol-6-yl)phenyl]thio}phenyl)-N-methyltetrahydro-2H-pyran-4-carboxamide] | 67.9 | 331 | – | 0 |
| CNC(=O)C1(c2cccc(Sc3ccc(-c4ccnn4C)cc3)c2Cl)CCOCC1 [Example 55, 4-(2-chloro-3-{[4-(1-methyl-1H-pyrazol-5-yl)phenyl]thio}phenyl)-N-methyltetrahydro-2H-pyran-4-carboxamide] | 357 | 1240 | – | 64 |
| C[C@H]1C[C@@](C#N)(c2cccc(Sc3ccc(C(=O)c4ccnn4C)cc3)c2F)CCO1 [Example 53, (2S,4R)+(2-fluoro-3-(4-(1-methyl-1H-pyrazole-5-carbonyl)phenylthio)phenyl)-2-methyl-tetrahydro-2H-pyran-4-carbonitrile] | 65.7 | 350 | – | 94 |
| Cn1nccc1-c1ccc(Sc2cc(F)cc(C3(C(N)=O)CCOCC3)c2)cc1 [Example 15, 4-(3-fluoro-5-{[4-(1-methyl-1H-pyrazol-5-yl)phenyl]thio}phenyl)tetrahydro-2H-pyran-4-carboxamide] | 264 | 365 | – | 68.5 |
| C[C@H]1C[C@@](C#N)(c2cccc(Sc3ccc(-c4ccnn4C)cc3)c2F)CCO1 [29(2), (2S,4R)-4-(2-fluoro-3-(4-(1-methyl-1H-pyrazol-5-yl)phenylthio)phenyl)-2-methyl-tetrahydro-2H-Pyran-4-carbonitrile] | 30 | 62.5 | – | 100 |
| CNC(=O)C1(c2cccc(Sc3ccc(-c4ccnn4C)cc3)c2)CCOCC1 [Example 10, N-Methyl-4-(3-{[4-(1-methyl-1H-pyrazol-5-yl)phenyl]thio}phenyl)tetrahydro-2H-pyran-4-carboxamide] | 287 | 294 | – | 5 |
| Cn1nccc1-c1ccc(Sc2cc(C3(C(N)=O)CCOCC3)ccc2F)cc1 [Example 21, 4-(4-fluoro-3-(4-(1-methyl-1H-pyrazol-5-yl)phenylthio)phenyl)-tetrahydro-2H-pyran-4-carboxamide] | 567 | 859 | – | 96 |
